Data published in ChEMBL document CHEMBL2424513, “Design, synthesis and biological studies of survivin dimerization modulators that prolong mitotic cycle” (Bioorg Med Chem Lett, 2013).
The source made the active and inactive calls. The rule behind the calls is not given here.

Legend:
[1] = molecular target: Baculoviral IAP repeat-containing protein 5 (Homo sapiens) (UniProt O15392); experiment: Modulation of GFP-tagged survivin dimerization in HUVEC assessed as reduction in cell number after 48 hrs by real-time video microscopy
[2] = molecular target: Baculoviral IAP repeat-containing protein 5 (Homo sapiens) (UniProt O15392); experiment: Modulation of GFP-tagged survivin dimerization in human PC3 cells assessed as distorted, diffused or decondensed CPC organization at 50 to 100 nM after 72 hrs by real-time video microscopy relative to control; type: cell-based; settings: PC-3
[3] = molecular target: Baculoviral IAP repeat-containing protein 5 (Homo sapiens) (UniProt O15392); experiment: Modulation of GFP-tagged survivin dimerization in HUVEC assessed as reduction in cell number at 50 to 100 nM by real-time video microscopy; settings: TDE = time-dependent effect
[4] = molecular target: Baculoviral IAP repeat-containing protein 5 (Homo sapiens) (UniProt O15392); experiment: Modulation of GFP-tagged survivin dimerization in HUVEC assessed as defect in mitotic progression at 10 nM after 48 hrs by real-time video microscopy
[5] = molecular target: Baculoviral IAP repeat-containing protein 5 (Homo sapiens) (UniProt O15392); experiment: Modulation of GFP-tagged survivin dimerization in HUVEC assessed as distorted, diffused or decondensed CPC organization at 50 to 100 nM after 48 hrs by real-time video microscopy relative to control
[6] = molecular target: Baculoviral IAP repeat-containing protein 5 (Homo sapiens) (UniProt O15392); experiment: Modulation of GFP-tagged survivin dimerization in HUVEC assessed as distorted, diffused or decondensed CPC organization at 10 nM after 48 hrs by real-time video microscopy relative to control
[7] = molecular target: Baculoviral IAP repeat-containing protein 5 (Homo sapiens) (UniProt O15392); experiment: Modulation of GFP-tagged survivin dimerization in HUVEC assessed as time length of mitosis at 100 nM after 48 hrs by real-time video microscopy (reference value: 51.2 +/- 2.3 mins)
[8] = molecular target: Baculoviral IAP repeat-containing protein 5 (Homo sapiens) (UniProt O15392); experiment: Modulation of GFP-tagged survivin dimerization in human PC3 cells assessed as defect in mitotic progression at 50 to 100 nM after 72 hrs by real-time video microscopy; type: cell-based; settings: PC-3
[9] = molecular target: Baculoviral IAP repeat-containing protein 5 (Homo sapiens) (UniProt O15392); experiment: Modulation of GFP-tagged survivin dimerization in human PC3 cells assessed as defect in mitotic progression at 10 nM after 72 hrs by real-time video microscopy; type: cell-based; settings: PC-3
[10] = molecular target: Baculoviral IAP repeat-containing protein 5 (Homo sapiens) (UniProt O15392); experiment: Modulation of GFP-tagged survivin dimerization in human PC3 cells assessed as distorted, diffused or decondensed CPC organization at 10 nM after 72 hrs by real-time video microscopy relative to control; type: cell-based; settings: PC-3
[11] = molecular target: Baculoviral IAP repeat-containing protein 5 (Homo sapiens) (UniProt O15392); experiment: Modulation of GFP-tagged survivin dimerization in HUVEC assessed as defect in mitotic progression at 50 to 100 nM after 48 hrs by real-time video microscopy relative to control
[12] = molecular target: Baculoviral IAP repeat-containing protein 5 (Homo sapiens) (UniProt O15392); experiment: Modulation of GFP-tagged survivin dimerization in human PC3 cells assessed as reduction in cell number at 50 to 100 nM after 72 hrs by real-time video microscopy relative to control; type: cell-based; settings: PC-3
[13] = molecular target: Baculoviral IAP repeat-containing protein 5 (Homo sapiens) (UniProt O15392); experiment: Modulation of GFP-tagged survivin dimerization in HUVEC assessed as reduction in cell number at 50 to 100 nM after 48 hrs by real-time video microscopy relative to control

Chain of Baculoviral IAP repeat-containing protein 5 (Homo sapiens) (O15392 whole entry, the tested form may be a part): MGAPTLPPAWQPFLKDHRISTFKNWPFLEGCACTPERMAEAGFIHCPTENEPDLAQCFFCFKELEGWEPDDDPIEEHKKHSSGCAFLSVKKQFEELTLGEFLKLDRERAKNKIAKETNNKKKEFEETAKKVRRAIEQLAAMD

Compound	Activity [1]	Activity [2]	Activity [3]	Activity [4]	Activity [5]	Activity [6]	TIME [7]	Activity [8]	fold change (FC) [8]	Activity [9]	Activity [10]	Activity [11]	fold change (FC) [11]	Activity [12]	Activity [13]
N#Cc1c(-c2cc(OCc3ccccc3)cc(OCc3ccccc3)c2)cc(-c2cc(Cl)ccc2O)[nH]c1=O	Dose-dependent effect	Active	tde	inactive	Active	inactive	2.57 h	inactive	2	inactive	inactive	inactive	2	–	–
N#Cc1c(-c2ccccc2)cc(-c2cc(Cl)ccc2O)[nH]c1=O	–	–	–	–	–	–	1.04 h	inactive	–	–	–	inactive	–	–	–
N#Cc1c(-c2cccc(OCc3ccccc3)c2)cc(-c2cc(Cl)cc(I)c2O)[nH]c1=O	Dose-dependent effect	Active	tde	inactive	Active	inactive	–	Active	–	inactive	inactive	Active	–	50%	50%
